Laboratory results taken from US11046745B2, “Peptide mimotopes of the CD3 T-cell co-receptor epsilon chain and uses thereof” (BioNTech SE, priority 2015, dated 2021).
Positions of bridges follow the written chain, without caps; N, C: chain ends. Residues, ends and D or L forms follow the SMILES beside them. *: point of attachment. Biotin = O=C1N[C@H]2[C@H](CS[C@H]2CCCCC(=O)*)N1

Tests used:
[1] = system: TR66 antibody (CD3ε specific antibody, clone TR66); assay: Binding analysis using biolayer interferometry (BLI), Octet Red, biotinylated peptides on streptavidin sensors; details: for Yes/no binding, BLI: 500 nM TR66 antibody, one concentration
Description: FIG. 5. Comparative binding analysis of matured TR66 mimotopes aCD3-04-002 and aCD3-04-013 using biolayer interferometry (BLI) on an Octet Red system (fortéBIO). Biotinylated peptides were immobilized onto streptavidin (SA) sensors. After blocking with 1× blocking buffer and biocytin association and dissociaten rates of TR66 binding were recorded over a period of 2400 sec respectively. The antibody was used in a range of 1.5625 to 100 nM (1.5625, 3.125, 6.25, 12.5, 25, 50, 100 nM) for each analyzed peptide.
Binding analysis was performed using streptavidin (SA) sensors on an Octet Red system (fortéBIO). 5 μg/ml of biotinylated peptides were used for loading (200 μl per sensor). […] Remained biotin binding sites on coated streptavidin sensors were blocked using 100 μg/ml biocytin (Sigma-Aldrich) for 5 minutes. For binding mode analysis of different peptides 500 nM TR66 antibody was used in the association step. For detailed analysis the antibody was used in a range of 1.5625 to 100 nM (1.5625, 3.125, 6.25, 12.5, 25, 50, 100 nM) for each analyzed peptide. The following program was used: • Baseline: 1000 rpm for 180 sec. • Load: 1000 rpm for 900 sec. • Baseline: 1000 rpm for 180 sec. • Blocking: 1000 rpm for 300 sec. • Association: 1000 rpm for 1200-2400 sec. • Dissociation: 1000 rpm for 1200-2400 sec.
The peptides displaying the highest binding affinities from the peptide microarray experiments were synthesized by standard Fmoc-based solid-phase-synthesis protocols and purified (HPLC purity: >80%). The binding characteristics of each peptide were determined. In the first instance all peptides were analysed via biolayer interferometry (BLI) to get a first impression whether the respective variant has a significant binding property at all (yes/no binding, Table 2). At his point, only one TR66 concentration (500 nM) was tested. Except variants aCD3-04-010 and aCD3-04-012 all peptides show a measurable binding activity.

[2] = molecular target: TR66 antibody (CD3ε specific antibody, clone TR66); assay: Binding analysis using peptide ELISA, biotinylated peptides on streptavidin plates, TR66; details: for Kd: TR66, mean of at least two individual measurements, two-site saturation binding model, read-out: Apparent KD, ELISA
Description: FIG. 3. Binding analysis of phage derived variants using a peptide based ELISA. Biotinylated peptides were immobilized on streptavidin plates (Nunc) in a concentration of 0.75 μg/ml. After blocking 30 μg/ml TR66 or an unrelated antibody (control ab) were added and incubated for 1 h at 37° C. Binding was detected with an alkaline phosphatase conjugated goat anti-human IgG antibody (Sigma) and the chromogenic substrate PNPP (para-nitrophenyl phosphate). All reactions were performed as duplicates. SD values are presented as error bars.
For the detection of TR66 or OKT3 (Bio-X-Cell), the CD3 mimicking peptides were immobilized on streptavidin plates (Nunc) in a concentration of 0.75 μg/ml in PBS buffer for 1 hour at 37° C. Subsequently, the plate was washed three times with washing buffer (0.01% Tween-20 in PBS buffer) before it was blocked with 3% BSA in PBS overnight at 4° C. To detect TR66 or OKT3, the blocked plate was washed again three times with washing buffer followed by the addition of TR66 or OKT3 and incubation for 30 min at 37° C. After another washing step, it was incubated with an alkaline phosphatase conjugated Goat anti-human or anti-mouse IgG, Fe antibody (Jackson Immuno Research) for additional 30 min at 37° C. Finally, the plate was washed again before being incubated with 1.5 mg/ml of the substrate PNPP (para-nitrophenyl phosphate) in appropriate substrate buffer (1 M Diethanolamine, 0.05 mM MgCl2, 0.01% sodium azide, pH 9.8) for 30 min at RT in the dark. 3 M KOH was used to stop the enzymatic reaction. Absorbance was measured with a microplate reader (Infinite M200, Tecan). For dual wavelength analysis, 405 nm was chosen as measurement wavelength and 492 nm as reference wavelength. Absorbance values were calculated by subtraction of the measured values for the reference wavelength and for the measurement wavelength. Calculation of apparent KD values was done by fitting the data with Sigma Plot 10 using a two-site saturation binding model.

[3] = system: TR66 antibody; assay: Peptide microarray incubated with TR66, fluorescently labelled secondary antibody; format: binding; details: cyclic peptide immobilized through C-terminus; 1.0 μg/ml TR66; data not shown
Description: Peptides were synthesized and printed on peptide-microarray slides essentially as described previously (Funkner, A. et al., J. Mol. Biol. 425, 1340-1362 (2013)). In brief, the peptides were synthesized using SPOT synthesis (Wenschuh, H. et al., Biopolymers 55, 188-206 (2000)) cleaved from the solid support and cyclized (50% DMSO, PBS buffer pH 7-8, RT, 16 hours). Subsequently, all peptides were chemoselectively immobilized on functionalized glass slides as described earlier (Schnatbaum, K. et al., Biotechnol. J. 9, 545-554 (2014); Funkner, A. et al., J. Mol. Biol. 425, 1340-1362 (2013)). Each peptide was deposited on the microarray in triplicates.
The microarrays were incubated with 1.0 or 0.1 μg/ml TR66 in an HS 4800 microarray processing station (Tecan) for two hours at 30° C., followed by incubation with 1.0 μg/ml fluorescently labelled secondary antibody (Alexa647 anti-human Fe antibody; Jackson Immuno Research). Washing steps were performed prior every incubation step with 0.1% Tween-20 in 1×TBS. After the final incubation step the microarrays were washed (0.05% Tween-20 in 0.1×SSC) and dried in a stream of nitrogen. Each microarray was scanned using a GenePix Autoloader 4200AL (Molecular Devices, Pixel size: […]). Signal intensities were evaluated using GenePix Pro 7.0 analysis software (Molecular Devices). For each peptide, the mean of the three triplicates was calculated. […]

[4] = system: Muromonab-CD3 (Orthoclone OKT3), CD3-specific monoclonal antibody; assay: Peptide ELISA for cross-reactivity to OKT3; format: binding, murine
Description: FIG. 6. Comparative binding analysis of maturated TR66 mimotope aCD3-04-013 to approved antibody Muromanab-CD3 (Orthoclone OKT3®). Biotinylated peptides were immobilized on streptavidin plates (Nunc). After blocking different concentrations (0, 156, 312, 625, 1250, 5000 and 10000 ng/ml) of TR66, OKT3 or an unrelated antibody (control ab) were added and incubated for 1 h at 37° C. Binding was detected with an alkaline phosphatase conjugated goat anti-human IgG antibody (Sigma) and the chromogenic substrate PNPP (para-nitrophenyl phosphate). All reactions were performed as duplicates. SD values are presented as error bars.
For the detection of TR66 or OKT3 (Bio-X-Cell), the CD3 mimicking peptides were immobilized on streptavidin plates (Nunc) in a concentration of 0.75 μg/ml in PBS buffer for 1 hour at 37° C. Subsequently, the plate was washed three times with washing buffer (0.01% Tween-20 in PBS buffer) before it was blocked with 3% BSA in PBS overnight at 4° C. To detect TR66 or OKT3, the blocked plate was washed again three times with washing buffer followed by the addition of TR66 or OKT3 and incubation for 30 min at 37° C. […] Absorbance was measured with a microplate reader (Infinite M200, Tecan). […] Absorbance values were calculated by subtraction of the measured values for the reference wavelength and for the measurement wavelength. […]

Row | Yes/no binding, BLI [1] | Kd [2] [nM] | TR66 binding after chemical synthesis, ELISA-based binding analysis (FIG. 3) ([2]; peptide 0.75 μg/ml, 30 μg/ml TR66) | TR66 binding on peptide microarray [3] | Binding of TR66 in detailed BLI analysis (FIG. 5) ([1]; TR66 1.5625 to 100 nM, dissociation constant could not be fitted) | Binding of OKT3 to mimotope, ELISA titration (FIG. 6) ([4]; OKT3 titration 0-10000 ng/ml) | Affinity of OKT3 binding compared to TR66 binding, ELISA ([4]; different detection antibodies for TR66 and OKT3) | Compound
1 | Yes | 370 | could be verified | strong binding |  |  |  | C[C@H](N)C(=O)N[C@H]1CSSC[C@@H](C(=O)NCC(=O)NCC(=O)NCC(=O)N[C@@H](CO)C(=O)N[C@@H](CCCCNC(=O)CCCC[C@@H]2SC[C@@H]3NC(=O)N[C@@H]32)C(=O)O)NC(=O)[C@H](CCC(N)=O)NC(=O)[C@@H]2CCCN2C(=O)[C@H](CC(=O)O)NC(=O)CNC(=O)[C@@H]2CCCN2C(=O)[C@H](CCCNC(=N)N)NC(=O)[C@H]([C@@H](C)O)NC1=O [aCD3 C7C-4, ACTRPGDPQC-GGGS-K(Bio)] (H-ACTRPGDPQCGGGSK(Biotin)-OH; disulfide 2-10)
2 | Yes | 4 |  |  | concentration-dependent binding | specific binding | slightly lower affinity | C[C@H](N)C(=O)N[C@H]1CSSC[C@@H](C(=O)NCC(=O)NCC(=O)NCC(=O)N[C@@H](CO)C(=O)N[C@@H](CCCCNC(=O)CCCC[C@@H]2SC[C@@H]3NC(=O)N[C@@H]32)C(=O)O)NC(=O)[C@H](CCC(=O)O)NC(=O)[C@@H]2CCCN2C(=O)[C@H](CC(=O)O)NC(=O)[C@H](CC(=O)O)NC(=O)[C@@H]2CCCN2C(=O)[C@H](CCCNC(=N)N)NC(=O)[C@H]([C@@H](C)O)NC1=O [aCD3-04-013, ACTRPDDPEC-GGGS-K(Bio)] (H-ACTRPDDPECGGGSK(Biotin)-OH; disulfide 2-10)
3 | Yes | 111 |  |  |  |  |  | C[C@H](N)C(=O)N[C@H]1CSSC[C@@H](C(=O)NCC(=O)NCC(=O)NCC(=O)N[C@@H](CO)C(=O)N[C@@H](CCCCNC(=O)CCCC[C@@H]2SC[C@@H]3NC(=O)N[C@@H]32)C(=O)O)NC(=O)[C@H](Cc2c[nH]c3ccccc23)NC(=O)[C@@H]2CCCN2C(=O)[C@H](CC(=O)O)NC(=O)[C@H](CC(=O)O)NC(=O)[C@@H]2CCCN2C(=O)[C@H](CCCNC(=N)N)NC(=O)[C@H]([C@@H](C)O)NC1=O [aCD3-04-014, ACTRPDDPWC-GGGS-K(Bio)] (H-ACTRPDDPWCGGGSK(Biotin)-OH; disulfide 2-10)
